Measurements taken from US20170107207A1, “AMINOPYRAZOLONE DERIVATIVE” (DAIICHI SANKYO COMPANY, LIMITED, priority 2014, published 2017).

Tests used:
TIP48/TIP49 complex = target: T1, TIP48/TIP49 complex (Homo sapiens, UniProt Q9Y230+Q9Y265); experiment: ATPase assay of TIP48/TIP49 complex (ADP-Glo); assay type: biochemical; settings: concentration at which the ATPase activity was inhibited by 50%
T1 construct: made in house; host or cells: E. coli
In short: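 Compound was tested over 10 four-fold concentrations, 200 μM down to 0.0007 μM at 2% DMSO, against E. coli-derived human rTIP48/rTIP49 for 1.5 h at room temperature, pH 7.5 with ATP. ATP hydrolysis was read as ADP-Glo luminescence, normalised to complex-only and no-complex wells, then fitted to dose-response curves.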

[1] = tested on: human lymphoma cell line RAMOS cells; experiment: Cell growth inhibition test using RAMOS cell, ATP assay (CellTiter-Glo); assay type: cell-based; settings: Homo sapiens, Ramos, 72 h, cultured 3 days, 50% growth inhibition concentration
In short: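 RAMOS cells seeded at 4000 cells/well with compound and cultured 3 days at 37° C, 5% CO2; viability by CellTiter-Glo luminescence. Growth rate T/C % = 100×[(B−C)/(A−C)] using day-0 and final readings; GI50 interpolated from the two concentrations bracketing 50% growth.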

T1 sequence (Q9Y230 whole entry): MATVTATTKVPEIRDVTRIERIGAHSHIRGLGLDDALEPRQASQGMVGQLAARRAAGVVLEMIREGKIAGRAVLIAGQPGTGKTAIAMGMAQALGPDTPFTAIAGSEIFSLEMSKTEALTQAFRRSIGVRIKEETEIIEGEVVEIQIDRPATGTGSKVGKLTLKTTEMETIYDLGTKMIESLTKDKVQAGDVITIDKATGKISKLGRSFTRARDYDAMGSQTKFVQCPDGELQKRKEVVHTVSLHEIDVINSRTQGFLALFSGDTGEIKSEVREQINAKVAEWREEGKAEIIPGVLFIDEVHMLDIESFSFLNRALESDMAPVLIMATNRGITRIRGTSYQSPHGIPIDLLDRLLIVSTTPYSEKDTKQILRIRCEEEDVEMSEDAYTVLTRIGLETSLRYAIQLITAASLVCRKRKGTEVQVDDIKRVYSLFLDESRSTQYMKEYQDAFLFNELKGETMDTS
T1 sequence (Q9Y265 whole entry): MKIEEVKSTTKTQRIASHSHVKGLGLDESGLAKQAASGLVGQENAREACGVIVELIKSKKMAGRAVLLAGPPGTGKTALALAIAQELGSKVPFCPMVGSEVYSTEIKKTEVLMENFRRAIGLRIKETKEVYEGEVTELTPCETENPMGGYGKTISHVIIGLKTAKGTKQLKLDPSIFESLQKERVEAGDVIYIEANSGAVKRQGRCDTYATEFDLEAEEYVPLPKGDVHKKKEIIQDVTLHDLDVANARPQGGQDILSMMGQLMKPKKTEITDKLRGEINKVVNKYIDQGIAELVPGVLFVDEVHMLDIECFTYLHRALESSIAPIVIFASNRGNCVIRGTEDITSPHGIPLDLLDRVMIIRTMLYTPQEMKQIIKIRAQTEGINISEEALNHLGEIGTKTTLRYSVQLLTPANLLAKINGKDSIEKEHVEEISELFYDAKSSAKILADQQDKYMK

SMILES	IC50 (TIP48/TIP49 complex) [nM]	GI50 [1] [nM]
CCOc1ncc(Cl)cc1C(=O)NCC(C)(C)CC(=O)Nc1c(C(C)CN(C)C)n(C)n(-c2ccccc2)c1=O (stereo not shown) [Example 71, 5-Chloro-N-[4-({5-[2-(dimethylamino)-1-methylethyl]-1-methyl-3-oxo-2-phenyl-2,3-dihydro-1H-pyrazol-4-yl}amino)-2,2-dimethyl-4-oxobutyl]-2-ethoxypyridine-3-carboxamide]	90	420
CCOc1ncc(Br)cc1C(=O)NCC(C)(C)CC(=O)Nc1c(C(C)CN(C)C)n(C)n(-c2ccccc2)c1=O (stereo not shown) [Example 74, 5-Bromo-N-[4-({5-[2-(dimethylamino)-1-methylethyl]-1-methyl-3-oxo-2-phenyl-2,3-dihydro-1H-pyrazol-4-yl}amino)-2,2-dimethyl-4-oxobutyl]-2-ethoxypyridine-3-carboxamide]	180	470
COCOc1cc(Cl)c(Cl)cc1C(=O)NCC(C)(C)CC(=O)Nc1c(C(C)CN(C)C)n(C)n(-c2ccccc2)c1=O (stereo not shown) [Example 75, 4,5-Dichloro-N-[4-({5-[2-(dimethylamino)-1-methylethyl]-1-methyl-3-oxo-2-phenyl-2,3-dihydro-1H-pyrazol-4-yl}amino)-2,2-dimethyl-4-oxobutyl]-2-(methoxymethoxy)benzamide]	99	270
CCOc1ncc(Cl)cc1C(=O)NCC(C)(C)CC(=O)Nc1c(C(C)CNC)n(C)n(-c2ccccc2)c1=O (stereo not shown) [Example 77, 5-Chloro-N-[2,2-dimethyl-4-({1-methyl-5-[1-methyl-2-(methylamino)ethyl]-3-oxo-2-phenyl-2,3-dihydro-1H-pyrazol-4-yl}amino)-4-oxobutyl]-2-ethoxypyridine-3-carboxamide]	92	800
CNCC(C)c1c(NC(=O)CC(C)(C)CNC(=O)c2cc(Cl)cc3cc(C)oc23)c(=O)n(-c2ccccc2)n1C (stereo not shown) [Example 78, 5-Chloro-N-[2,2-dimethyl-4-({1-methyl-5-[1-methyl-2-(methylamino)ethyl]-3-oxo-2-phenyl-2,3-dihydro-1H-pyrazol-4-yl}amino)-4-oxobutyl]-2-methylbenzofuran-7-carboxamide]	70	480
CCOc1cc(F)c(Cl)cc1C(=O)NCC(C)(C)CC(=O)Nc1c(C(CN(C)C)OC)n(C)n(-c2ccccc2)c1=O (stereo not shown) [Example 80, 5-Chloro-N-[4-({5-[2-(dimethylamino)-1-methoxyethyl]-1-methyl-3-oxo-2-phenyl-2,3-dihydro-1H-pyrazol-4-yl}amino)-2,2-dimethyl-4-oxobutyl]-2-ethoxy-4-fluorobenzamide]	140	170
CCOc1ncc(Cl)cc1C(=O)NCC(C)(C)CC(=O)Nc1c(C(CN(C)C)OC)n(C)n(-c2ccccc2)c1=O (stereo not shown) [Example 81, 5-Chloro-N-[4-({5-[2-(dimethylamino)-1-methoxyethyl]-1-methyl-3-oxo-2-phenyl-2,3-dihydro-1H-pyrazol-4-yl}amino)-2,2-dimethyl-4-oxobutyl]-2-ethoxypyridine-3-carboxamide]	210	410
CCOc1cc(F)c(Cl)cc1C(=O)NCC(C)(C)CC(=O)Nc1c(CCCCN(C)C)n(C)n(-c2ccccc2)c1=O [Example 89, 5-Chloro-N-[4-({5-[4-(dimethylamino)butyl]-1-methyl-3-oxo-2-phenyl-2,3-dihydro-1H-pyrazol-4-yl}amino)-2,2-dimethyl-4-oxobutyl]-2-ethoxy-4-fluorobenzamide]	90	170
Cc1cc2cc(Cl)cc(C(=O)NCC(C)(C)CC(=O)Nc3c(CCCCN(C)C)n(C)n(-c4ccccc4)c3=O)c2o1 [Example 90, 5-Chloro-N-[4-({5-[4-(dimethylamino)butyl]-1-methyl-3-oxo-2-phenyl-2,3-dihydro-1H-pyrazol-4-yl}amino)-2,2-dimethyl-4-oxobutyl]-2-methylbenzofuran-7-carboxamide]	28	140
CCOc1cc(F)c(Cl)cc1C(=O)NCC(C)(C)CC(=O)Nc1c(C)n(C)n(-c2ccccc2)c1=O [Example 92, 5-Chloro-N-{4-[(1,5-dimethyl-3-oxo-2-phenyl-2,3-dihydro-1H-pyrazol-4-yl)amino]-2,2-dimethyl-4-oxobutyl}-2-ethoxy-4-fluorobenzamide]	26	560
COCOc1cc(F)c(Cl)cc1C(=O)NCC(C)(C)CC(=O)Nc1c(COC)n(C)n(-c2ccccc2)c1=O [Example 116, 5-Chloro-4-fluoro-2-(methoxymethoxy)-N-(4-{[5-(methoxymethyl)-1-methyl-3-oxo-2-phenyl-2,3-dihydro-1H-pyrazol-4-yl]amino}-2,2-dimethyl-4-oxobutyl)benzamide]	14	140
CCOc1cc(F)c(Cl)cc1C(=O)NCC(C)(C)CC(=O)Nc1c(C(C)OC)n(C)n(-c2ccccc2)c1=O (stereo not shown) [Example 122, 5-Chloro-2-ethoxy-4-fluoro-N-(4-{[5-(1-methoxyethyl)-1-methyl-3-oxo-2-phenyl-2,3-dihydro-1H-pyrazol-4-yl]amino}-2,2-dimethyl-4-oxobutyl)benzamide]	460	140
CCOc1cc(F)c(Cl)cc1C(=O)NCC(C)(C)CC(=O)Nc1c([C@H](C)OC)n(C)n(-c2ccccc2)c1=O [Example 123, 5-Chloro-2-ethoxy-4-fluoro-N-(4-{[5-((1S)-methoxyethyl)-1-methyl-3-oxo-2-phenyl-2,3-dihydro-1H-pyrazol-4-yl]amino}-2,2-dimethyl-4-oxobutyl)benzamide]	39	120
CCOc1cc(F)c(Cl)cc1C(=O)NCC(C)(C)CC(=O)Nc1c([C@@H](C)OC)n(C)n(-c2ccccc2)c1=O [Example 124, 5-Chloro-2-ethoxy-4-fluoro-N-(4-{[5-((1R)-1-methoxyethyl)-1-methyl-3-oxo-2-phenyl-2,3-dihydro-1H-pyrazol-4-yl]amino}-2,2-dimethyl-4-oxobutyl)benzamide]	38	140

More lines, now with the values ahead:

IC50 (TIP48/TIP49 complex) [nM]	GI50 [1] [nM]	SMILES
84	160	CCOc1cc(F)c(Cl)cc1C(=O)NCC(C)(C)CC(=O)Nc1c([C@H](C)CN(C)C)n(C)n(-c2ccccc2)c1=O [Example 70, 5-Chloro-N-[4-({5-[(1R)-2-(dimethylamino)-1-methylethyl]-1-methyl-3-oxo-2-phenyl-2,3-dihydro-1H-pyrazol-4-yl}amino)-2,2-dimethyl-4-oxobutyl]-2-ethoxy-4-fluorobenzamide]
80	510	CCOc1ncc(Cl)cc1C(=O)NCC(C)(C)CC(=O)Nc1c([C@@H](C)CN(C)C)n(C)n(-c2ccccc2)c1=O [Example 72, 5-Chloro-N-[4-({5-[(1S)-2-(dimethylamino)-1-methylethyl]-1-methyl-3-oxo-2-phenyl-2,3-dihydro-1H-pyrazol-4-yl}amino)-2,2-dimethyl-4-oxobutyl]-2-ethoxypyridine-3-carboxamide]
68	590	CCOc1ccc(Cl)cc1C(=O)NCC(C)(C)CC(=O)Nc1c(C(C)CNC)n(C)n(-c2ccccc2)c1=O (stereo not shown) [Example 76, 5-Chloro-N-[2,2-dimethyl-4-({1-methyl-5-[1-methyl-2-(methylamino)ethyl]-3-oxo-2-phenyl-2,3-dihydro-1H-pyrazol-4-yl}amino)-4-oxobutyl]-2-ethoxybenzamide]
51	140	CCOc1ccc(Cl)cc1C(=O)NCC(C)(C)CC(=O)Nc1c(C(CN(C)C)OC)n(C)n(-c2ccccc2)c1=O (stereo not shown) [Example 79, 5-Chloro-N-[4-({5-[2-(dimethylamino)-1-methoxyethyl]-1-methyl-3-oxo-2-phenyl-2,3-dihydro-1H-pyrazol-4-yl}amino)-2,2-dimethyl-4-oxobutyl]-2-ethoxybenzamide]
80	170	CCOc1ccc(Cl)cc1C(=O)NCC(C)(C)CC(=O)Nc1c(C(C)(C)CN(C)C)n(C)n(-c2ccccc2)c1=O [Example 84, 5-Chloro-N-[4-({5-[2-(dimethylamino)-1,1-dimethylethyl]-1-methyl-3-oxo-2-phenyl-2,3-dihydro-1H-pyrazol-4-yl}amino)-2,2-dimethyl-4-oxobutyl]-2-ethoxybenzamide]
52	120	CCOc1ccc(Cl)cc1C(=O)NCC(C)(C)CC(=O)Nc1c(C(C)C(C)(C)N(C)C)n(C)n(-c2ccccc2)c1=O (stereo not shown) [Example 87, 5-Chloro-N-[4-({5-[2-(dimethylamino)-1,2-dimethylpropyl]-1-methyl-3-oxo-2-phenyl-2,3-dihydro-1H-pyrazol-4-yl}amino)-2,2-dimethyl-4-oxobutyl]-2-ethoxybenzamide]
110	180	CCOc1ccc(Cl)cc1C(=O)NCC(C)(C)C(F)C(=O)Nc1c(CCN(C)C)n(C)n(-c2ccccc2)c1=O (stereo not shown) [Example 91, 5-Chloro-N-[4-({5-[2-(dimethylamino)ethyl]-1-methyl-3-oxo-2-phenyl-2,3-dihydro-1H-pyrazol-4-yl}amino)-3-fluoro-2,2-dimethyl-4-oxobutyl]-2-ethoxybenzamide]
41	130	COCOc1ccc(Cl)cc1C(=O)NCC(C)(C)CC(=O)Nc1c(COC)n(C)n(-c2ccccc2)c1=O [Example 115, 5-Chloro-2-(methoxymethoxy)-N-(4-{[5-(methoxymethyl)-1-methyl-3-oxo-2-phenyl-2,3-dihydro-1H-pyrazol-4-yl]amino}-2,2-dimethyl-4-oxobutyl)benzamide]
36	140	CCOc1ccc(Cl)cc1C(=O)NCC(C)(C)CC(=O)Nc1c(C(C)OC)n(C)n(-c2ccccc2)c1=O (stereo not shown) [Example 125, 5-Chloro-2-ethoxy-N-(4-{[5-(1-methoxyethyl)-1-methyl-3-oxo-2-phenyl-2,3-dihydro-1H-pyrazol-4-yl]amino}-2,2-dimethyl-4-oxobutyl)benzamide]
